Test results as given in publication PMC3997483, “Aminostyrylbenzofuran Directly Reduces Oligomeric Amyloid-β and Reverses Cognitive Deficits in Alzheimer Transgenic Mice” (PLoS ONE, 2014).
Like-named read-outs stand apart in the source and are kept apart here.

Tests used:
[1] = Plasma and brain pharmacokinetics (BBB penetration) after PO in mice; assay type: in vivo; settings: for AUC(0-t): read-out: AUC0–24h
Experimental: Pharmacokinetics profile of KMS88009 was obtained using ICR mice, SD rats, beagle dogs and cynomolgus monkeys. Animals were fasted overnight before KMS88009 administration. Mice were divided into 2 groups to receive KMS88009 as a single dose of 2.1 mg/kg intravenous (IV) bolus or 10 mg/kg orally (PO) by gavage. Additionally, KMS88009 was administered orally to estimate the BBB penetration in mice (10, 30 and 100 mg/kg). […] Dog received KMS88009 either as an IV bolus (1 mg/kg) via the great saphenous vein or by oral gavage (4 mg/kg). KMS88009 was administrated to monkeys as an IV bolus (1 mg/kg) via the femoral vein or by oral gavage (4 mg/kg). Vehicle for IV and PO administration was DMSO/tween-20/saline (3.3∶19.8∶[…]). […]. Brain samples were weighed and Daunce-homogenized in 10-fold volume of ice-chilled 4% bovine serum albumin (BSA) solution at room temperature. Plasma and brain homogenates were kept frozen at −70°C until analysis. The levels of KMS88009 were determined by the LC-MS/MS analysis. Pharmacokinetic parameters, time to the maximum concentration (Tmax), maximum concentration (Cmax), elimination half-life (T1/2), volume of distribution (Vd), clearance (Cl) and mean residual time (MRT), of KMS88009 were calculated based on plasma concentration-time data by a non-compartmental method using WinNonlin Version 5.2 (Pharsight, USA). Area under the curve from 0 to 24 hr (AUC0-24h) and area under the curve from 0 to infinity (AUCINF) were obtained by linear and log linear trapezoidal summations.

Plasma stability = assay type: in vitro ADME; settings: 37 °C
Experimental: Plasma stability studies Plasma stability of the KMS88009 was studied in human, dog, rat and mouse plasma. Each plasma from different species was diluted to 5-fold with 0.05 M phosphate buffered saline (PBS, pH 7.4 at 37 °C). We added KMS88009 to 1 mL of preheated plasma solution to yield a final concentration of 1 μM. The assay was performed in a shaking water bath at 37 °C and conducted in triplicate. Samples (50 μL) were taken at 0, 0.5, 1, 2 and 6 hr and added to 10 μL of 0.05% formic acid. The samples were subjected to vortex mixing for 1 min and centrifuged at 4 °C for 20 min at 14,000 rpm. The clear supernatants were analyzed by liquid chromatography/mass/mass spectrometry (LC-MS/MS). Values are expressed as the mean ± SD of 2 independent experiments. Stability is expressed as the percentage of remaining compound in % relative to the start concentration set to 100%.

Aβ40 and Aβ42 = assay: Aβ40/Aβ42 sandwich ELISA of hippocampus, therapeutic trial; assay type: in vivo, mouse; settings: 30 mg/kg/day, 3 months
Experimental: Mice subjected to behavior tests were sacrificed and levels of Aβ in their brains were analyzed. After removing olfactory lobe and cerebellum of brain, hippocampus and cerebral cortex were separated. The separated regions were Dounce-homogenized first in 10-fold mass of a lysis buffer (RIPA, 150 mM NaCl, 1% NP-40, 0.5% deoxycholic acid, 0.1% SDS and 50 mM tris, pH 8.0) or tris buffer (50 mM tris and pH 8.0) containing protease inhibitor cocktail (Pierce, USA) for prophylactic or therapeutic treatment groups, respectively. The homogenates were then centrifuged at 16,000 g for 20 min at 4°C. The supernatant (soluble Aβ fraction) was collected and stored at −70°C until analyzed. The resulting pellet was solubilized in 20-fold mass of cold guanidine solution (5 M guanidine HCl, 50 mM tris HCl and pH 8.0) at room temperature for 4 hr followed by dilution with cold Dulbecco's phosphate buffered saline (PBS) with 5% BSA and 0.03% tween-20. The diluent was centrifuged at 16,000 g for 20 min at 4°C to obtain the insoluble Aβ fraction. The tissue concentrations of Aβ40 and Aβ42 in the soluble and insoluble fraction were measured using Aβ-detecting sandwich enzyme-linked immunosorbent assay (ELISA) kit (BioSource, USA). The levels of soluble Aβ oligomers were measured by a dot-blot immunoassay with an anti-oligomer antibody and an anti-Aβ antibody on soluble fraction of hippocampus homogenates. The homogenate sample (3 µL) was spotted onto nitrocellulose membrane (Whatman, UK). After blocking with 5% BSA in tris-buffered saline (TBS) for 1 hr at room temperature, the membrane was incubated with rabbit anti-oligomer polyclonal antibody (A11; 1∶1,000; Millipore, USA) overnight at 4°C, followed by incubation with HRP-secondary anti-rabbit antibody (1∶5,000; Millipore, USA) for 1 hr at room temperature. Blots were developed using ECL reagents (PerkinElmer, USA). […] The density of dots was analyzed with Multi Gauge program (Fuji Film, Japan) and the data was normalized to the average density of the TG control group. […]

[2] = ICR, mouse, brain, mice PO 10 mg/kg
[3] = ICR, mouse, brain, mice PO 30 mg/kg
[4] = ICR, mouse, brain, mice PO 100 mg/kg
[5] = ICR, mouse, plasma, mice PO 10 mg/kg
[6] = ICR, mouse, plasma, mice PO 30 mg/kg
[7] = ICR, mouse, plasma, mice PO 100 mg/kg

COc1ccc2cc(C=Cc3ccc(N(C)C)cc3)oc2c1 [KMS88009, 6-methoxy-2-(4-dimethylaminostyryl) benzofuran]
Kp ([1]; ICR, mouse, brain, mice, PO, read-out: Level (AUC0–24h) in the brain relative to plasma): > 12
Cmax [1, 2]: 6370 ng/g
Tmax [1, 2]: 2 h
Cmax [1, 3]: 17800 ng/g
Tmax [1, 3]: 4 h
Cmax [1, 4]: 23300 ng/g
Tmax [1, 4]: 10 h
Cmax [1, 5]: 744 ng/mL
Tmax [1, 5]: 1 h
AUC(0-t) [1, 5]: 4570 ng·h/mL
Cmax [1, 6]: 1640 ng/mL
Tmax [1, 6]: 1 h
AUC(0-t) [1, 6]: 13400 ng·h/mL
Cmax [1, 7]: 2710 ng/mL
Tmax [1, 7]: 2 h
AUC(0-t) [1, 7]: 30500 ng·h/mL
AUC0–24h ([1]; brain, mice PO 10 mg/kg): 55395.5 ng·h/g
AUC0–24h ([1]; brain, mice PO 30 mg/kg): 205268.3 ng·h/g
AUC0–24h ([1]; brain, mice PO 100 mg/kg): 367538.5 ng·h/g
Parent compound remaining (Plasma stability; dog plasma, 0.5 hr): 100.0%
Parent compound remaining (Plasma stability; dog plasma, 1 hr): 100.0%
Parent compound remaining (Plasma stability; dog plasma, 2 hr): 100.0%
Parent compound remaining (Plasma stability; dog plasma, 6 hr): 100.0%
Parent compound remaining (Plasma stability; human plasma, 0.5 hr): 100.0%
Parent compound remaining (Plasma stability; human plasma, 1 hr): 100.0%
Parent compound remaining (Plasma stability; human plasma, 2 hr): 82.0%
Parent compound remaining (Plasma stability; human plasma, 6 hr): 100.0%
Parent compound remaining (Plasma stability; mouse plasma, 0.5 hr): 100.0%
Parent compound remaining (Plasma stability; mouse plasma, 1 hr): 100.0%
Parent compound remaining (Plasma stability; mouse plasma, 2 hr): 100.0%
Parent compound remaining (Plasma stability; mouse plasma, 6 hr): 100.0%
Parent compound remaining (Plasma stability; rat plasma, 0.5 hr): 86.9%
Parent compound remaining (Plasma stability; rat plasma, 1 hr): 93.7%
Parent compound remaining (Plasma stability; rat plasma, 2 hr): 100.0%
Parent compound remaining (Plasma stability; rat plasma, 6 hr): 100.0%
decrease of insoluble Aβ42 level vs TG littermates (Aβ40 and Aβ42): 50.9%
decrease of insoluble Aβ40 level vs TG mice (Aβ40 and Aβ42; not statistically significant): 44.9%
decrease of soluble Aβ40 level vs TG mice (Aβ40 and Aβ42; not statistically significant): 19.4%
